Test results reported in patent US20160175249A1, “Liposomes Containing Oligopeptide Fragments of Myelin Basic Protein, a Pharmaceutical Composition and a Method for Treatment of Multiple Sclerosis” (LIPOXEN TECHNOLOGIES LIMITED, priority 2009, published 2016).

How the values were obtained:
EAE-induced DA rats = assay: EAE-induced DA rat model, paralysis score and mortality (DA-EAE-28-02, Example 13); format: in vivo; details: 54 EAE induced DA rats; daily s.c. injection, 6 total; deaths/N
Experimental: Each of the eight MBP peptide formulations were provided as a lyophilized powder and stored at 4° C. Rehydration of each formulation with water for injection was done daily according to Table 10. MBP peptide formulations were re-suspended in water for injection (Cure Medical) and copaxone (Teva LTD) was diluted with saline to a final concentration of 450 μg/mL. Each subject animal was administered the test formulation for 6 consecutive days by subcutaneous injection.
8-9 week old Dark Agouti (DA) female rats (Harlan Laboratories, Inc.), weighing between 110 and 145 grams were used as the test subjects. The health status of the animals used in this study was examined on arrival. Only animals in good health were acclimatized to laboratory conditions and were used in the study. Animals were provided food ad libitum and free access to drinking water. […]
The rats were evaluated up daily starting 24 hours after immunization. […]
9-11 days post EAE induction, 54 animals were divided to 10 groups (5-6 rats in each), and blood was collected from 2 rats of each group before the initiation of the treatment. […] The animals were maintained and evaluated until day 28th post EAE-induction. […]
Animals were observed individually and clinical signs were recorded once daily during all study periods. […] The body weight of each animals was determined daily during all study periods. […]

anti-MBP autoantibody = assay: Serum anti-MBP autoantibody titer in EAE DA rats (Example 11); format: in vivo; details: EAE DA rats treated as in Example 10
Experimental: To determine anti-MBP autoantibody binding patters in sera from the EAE-induced rodent models and human MS patients, ELISA experiments were performed as follows. Microtiter plates (MaxiSorp-Nunc) were coated with 50 μl of a 10 μg/ml MBP solution or recombinant MBP peptides in 100 mM carbonate/bicarbonate buffer pH 9.0, in odd column wells. Plates were sealed with ELISA plate sealer (Costar) and incubated at 4° C. overnight and then washed (300 μl/well) three times with phosphate-buffered saline (PBS) containing 0.15% Tween-20. All the wells were then blocked with 250 μl 2% bovine serum albumin (BSA) (Sigma) in carbonate/bicarbonate buffer pH 9.0 and incubated for 1 hr at 37° C. The plates were washed with PBS containing 0.15% Tween-20. Serum antibodies were diluted in PBS containing 0.15% Tween-20 and 0.5% BSA at the final dilution of 1:1000-1:50000, and 50 μl of the diluted sample was added to each well of the plate. Rat anti-MBP monoclonal antibody (ab7349, Abcam) was used as control. […] The OD450 values were measured using a microplate reader Varioscan (Thermo, USA).
To investigate the immunological status of EAE induced DA rats after treatment with liposomally encapsulated MBP peptides, serum isolated from rats treated as described in Example 10 was analyzed for anti-MBP antibodies and CNS cytokine staining (FIG. 5). […]

glatiramer acetate [copaxone]
Mortality Rate (EAE-induced DA rats): 1/5
Serum anti-MBP Antibody titer (anti-MBP autoantibody): 1.0 ± 0.1
